The source of these data is paper PMC5587309, “Involvement of arginine 878 together with Ca^2+ in mouse aminopeptidase A substrate specificity for N-terminal acidic amino-acid residues” (PLoS ONE, 2017).

Residue numbers refer to the chain shown, from its start. Like-named read-outs stand apart in the source and are kept apart here.

Usually Km stands for the concentration of substrate that gives half-maximal velocity. Broadly, the kcat is the number of substrate molecules converted per active site and unit of time at saturation. By Ki is commonly meant a dissociation constant, usually derived from enzyme kinetics or from competition with a known ligand.

Common to all, as to format: biochemical
In experiment [1] the target is T1, wild-type mAPA (Mus musculus, UniProt P16406).
T1 construct: made in house; host or cells: stably transfected CHO-K1 cells
T1 sequence (P16406 1-945): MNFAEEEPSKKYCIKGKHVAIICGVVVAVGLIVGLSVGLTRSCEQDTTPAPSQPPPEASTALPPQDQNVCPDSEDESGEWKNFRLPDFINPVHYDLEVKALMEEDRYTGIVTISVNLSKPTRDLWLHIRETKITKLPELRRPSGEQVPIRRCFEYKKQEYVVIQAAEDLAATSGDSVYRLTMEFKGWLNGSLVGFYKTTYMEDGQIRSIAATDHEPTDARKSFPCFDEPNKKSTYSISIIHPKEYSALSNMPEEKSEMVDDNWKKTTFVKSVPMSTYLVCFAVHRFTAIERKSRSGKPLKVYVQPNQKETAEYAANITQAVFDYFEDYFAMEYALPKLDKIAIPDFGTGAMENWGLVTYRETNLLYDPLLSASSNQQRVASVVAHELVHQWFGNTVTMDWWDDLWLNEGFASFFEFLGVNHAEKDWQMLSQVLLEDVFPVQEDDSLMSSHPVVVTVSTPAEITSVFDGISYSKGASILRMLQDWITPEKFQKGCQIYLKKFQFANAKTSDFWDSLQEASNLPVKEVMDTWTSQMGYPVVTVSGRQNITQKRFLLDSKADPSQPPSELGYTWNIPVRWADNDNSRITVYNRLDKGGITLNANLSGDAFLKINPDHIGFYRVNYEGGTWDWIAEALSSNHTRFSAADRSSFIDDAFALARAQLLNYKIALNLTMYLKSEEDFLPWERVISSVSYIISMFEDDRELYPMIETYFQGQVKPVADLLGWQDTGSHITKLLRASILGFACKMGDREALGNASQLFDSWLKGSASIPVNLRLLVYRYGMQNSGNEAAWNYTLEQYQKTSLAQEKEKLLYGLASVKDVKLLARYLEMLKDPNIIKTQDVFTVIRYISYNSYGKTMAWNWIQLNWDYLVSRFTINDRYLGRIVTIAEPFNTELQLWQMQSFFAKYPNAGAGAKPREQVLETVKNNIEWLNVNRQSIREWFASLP
Briefly: Kinetic parameters of substrate hydrolysis by wild-type His-mAPA. Particulars: for Km / kcat: wild type mAPA. As to the method:
(§1) Enzyme assays were carried out for wild-type and mutated His-mAPAs in 50 mM Tris-HCl buffer, pH 7.4, with or without 4 mM CaCl2, by monitoring the rate of hydrolysis of GluNA, as previously described. The sensitivity to Ca^2+ of purified wild-type and mutated His-mAPA was determinated by incubating 0.5 mM GluNA with 0 to 4 mM CaCl2 in a final volume of 100 μl of 50 mM Tris-HCl buffer, pH 7.4. All the assays were performed in black 96-well plates (solid black 96-well flat-bottomed non-treated plates with no lid; Corning Costar). All of the enzymatic studies were performed such that substrate hydrolysis rates were maintained below 10% (initial rate conditions). The kinetic curves were monitored by following the increase in fluorescence at 460 nm (lex = 330 nm), induced by the release of the β-naphthylamide fluorogenic part of the substrate by APA. Fluorescence signals were monitored by counting photons with a spectrophotometer (Fusion universal microplate analyser; Packard) equipped with a temperature control device and a plate shaker. The kinetic parameters (Km and kcat) were determined from Michaelis-Menten plots, using GraphPad Prism 4 software (GraphPad) with a final concentration of substrate (GluNA) from 0.005 to 5 mM with or without 4 mM Ca^2+. For evaluation of the substrate specificity of APA with or without 4 mM Ca^2+, the rate of hydrolysis of […] additional substrates, α-L-aspartate-β-naphthylamide (AspNA), α-L-alanine-β-naphthylamide (AlaNA) and basic α-L-lysine-β-naphthylamide (LysNA), was determined under the same experimental conditions as described for GluNA. The sensitivity of wild-type and mutated His-mAPAs to inhibition by [(3S)-3-amino-4-sulfanyl-butane-1-sulfonic acid] (EC33), glutamate-thiol (GluSH), glutamate-phosphonic-acid (GluPO3H2), methionine-thiol (MetSH) and lysine-thiol (LysSH) was determined by establishing dose-dependent inhibition curves for a final GluNA concentration of 0.5 mM in the presence or absence of 4 mM CaCl2. These compounds being linear competitive inhibitors, their Ki were calculated from the formula Ki = IC50/ (1+ [GluNA]/Km).

A further experiment addresses T2, R878A mutated mAPA (Mus musculus, UniProt P16406, R878A).
T2 construct: made in house; host or cells: stably transfected CHO-K1 cells
T2 sequence (P16406 1-945 R878A): T1 sequence (P16406 1-945) with R878A
Briefly: Kinetic parameters of substrate hydrolysis by R878A His-mAPA. As to the method: as §1

Experiment [2] deals with T1, wild-type mAPA. As to the kind of experiment: Inhibition of GluNA hydrolysis by purified recombinant wild-type His-mAPA. Particulars: wild-type mAPA; for Ki: 0.5 mM GluNA, read-out: Ki. As to the method: as §1

With `NCCCC[C@H](N)C(=O)Nc1ccc2ccccc2c1` [HLysβNA, α-L-lysine-β-naphthylamide], the Km at wild-type mAPA [1] (4 mM Ca2+) came out at 244 ± 29.5 µM; at wild-type mAPA [1] (no Ca2+), 304 ± 49.7 µM; on R878A mutated mAPA (4 mM Ca2+), 159 ± 7.8 µM; on R878A mutated mAPA (no Ca2+) it was 394 ± 57 µM. For the same compound, the kcat at wild-type mAPA [1] (4 mM Ca2+) worked out at 25.8 ± 0.2 s⁻¹; at wild-type mAPA [1] (no Ca2+), 16.4 ± 0.7 s⁻¹; at R878A mutated mAPA (4 mM Ca2+), 11.6 ± 0.2 s⁻¹; at R878A mutated mAPA (no Ca2+), 13.8 ± 0.7 s⁻¹.
For `N[C@@H](CC(=O)O)C(=O)Nc1ccc2ccccc2c1` [HAspβNA, α-L-aspartate-β-naphthylamide], the Km was found to be 54 ± 1.4 µM at wild-type mAPA [1] (4 mM Ca2+), 149 ± 15.6 µM on wild-type mAPA [1] (no Ca2+), 199 ± 10.1 µM on R878A mutated mAPA (4 mM Ca2+) and 1220 ± 24.9 µM on R878A mutated mAPA (no Ca2+). For the same compound, the kcat came out at 68.1 ± 1.3 s⁻¹ at wild-type mAPA [1] (4 mM Ca2+), 10.4 ± 0.6 s⁻¹ at wild-type mAPA [1] (no Ca2+), 17.9 ± 0.2 s⁻¹ at R878A mutated mAPA (4 mM Ca2+) and 1.89 ± 0.2 s⁻¹ on R878A mutated mAPA (no Ca2+).
Turning to `NCCCC[C@H](N)CS` [LysSH, (2S)-2,6-diaminohexane-1-thiol], the Ki on wild-type mAPA [2] (4 mM Ca2+) was determined as 13400 ± 1700 nM; on wild-type mAPA [2] (absence of calcium), 317 ± 30 nM.
As to `CSCC[C@H](N)CS` [MetSH], the Ki stood at 9180 ± 770 nM on wild-type mAPA [2] (4 mM Ca2+) and 750 ± 46 nM at wild-type mAPA [2] (absence of calcium).
Consider `C[C@H](N)C(=O)Nc1ccc2ccccc2c1` [HAlaβNA, α-L-alanine-β-naphthylamide], for which the Km at wild-type mAPA [1] (4 mM Ca2+) is 321 ± 41 µM; on wild-type mAPA [1] (no Ca2+), 394 ± 20 µM; on R878A mutated mAPA (4 mM Ca2+), 544 ± 74 µM; at R878A mutated mAPA (no Ca2+) it was 651 ± 43.8 µM. In addition, the kcat was determined as 17.4 ± 0.6 s⁻¹ at wild-type mAPA [1] (4 mM Ca2+), 21.6 ± 0.5 s⁻¹ at wild-type mAPA [1] (no Ca2+), 41.5 ± 1.6 s⁻¹ on R878A mutated mAPA (4 mM Ca2+) and 12.6 ± 0.04 s⁻¹ on R878A mutated mAPA (no Ca2+).
With `N[C@H](CS)CCS(=O)(=O)O` [EC33, (3S)‐3‐amino‐4‐sulfanylbutane‐1‐sulfonic acid], the inhibitory constant (Ki) at wild-type mAPA [2] (4 mM Ca2+) stood at 268 ± 22 nM.
`N[C@H](CS)CCC(=O)O` [GluSH, (4S)-4-amino-5-sulfanylpentanoic acid]: the “enhancement of inhibitory potency by 4 mM Ca2+ compared to Ki in the absence of Ca2+” value on wild-type mAPA [2] is 5.0 fold. For the same compound, the Ki is 314 ± 33 nM at wild-type mAPA [2] (4 mM Ca2+) and 1570 ± 270 nM on wild-type mAPA [2] (absence of calcium).
In the case of `N[C@@H](CCC(=O)O)C(=O)Nc1ccc2ccccc2c1` [HGluβNA, α-L-glutamyl-β-naphthylamide], the Km at wild-type mAPA [1] (4 mM Ca2+) is 39.1 ± 3.9 µM; at wild-type mAPA [1] (no Ca2+), 165 ± 13.5 µM; at R878A mutated mAPA (4 mM Ca2+) it was 221 ± 4 µM; at R878A mutated mAPA (no Ca2+), 1500 ± 79.6 µM. In addition, the kcat is 81.7 ± 4.0 s⁻¹ at wild-type mAPA [1] (4 mM Ca2+), 13.9 ± 0.1 s⁻¹ on wild-type mAPA [1] (no Ca2+), 22.4 ± 0.1 s⁻¹ at R878A mutated mAPA (4 mM Ca2+) and 4.95 ± 0.1 s⁻¹ at R878A mutated mAPA (no Ca2+). Besides, at wild-type mAPA [1] (wild-type APA, 4 mM Ca2+ vs no Ca2+), the “increase of cleavage efficiency (kcat/Km) by addition of Ca2+” value came to 25 fold. Moreover, the “decrease in hydrolysis velocity (kcat) compared to wild-type (factor)” value at R878A mutated mAPA (presence of Ca2+) is recorded as 4. Moreover, the “decrease in the affinity of the enzyme for the substrate compared to wild-type (factor)” value on R878A mutated mAPA (presence of Ca2+) is recorded as 6.
